# Laboratory results as given in US12486495B2, “Cardiac organoid, manufacturing method therefor, and method for evaluating drug toxicity by using same” (priority 2020, dated 2025).
# Tested on: cardiac organoid
smiles,measurement,setting,value
COc1ccc(CCN(C)CCCC(C#N)(c2ccc(OC)c(OC)c2)C(C)C)cc1OC (stereo not shown) [verapamil],beating velocity after treatment with calcium antagonist,"FIG. 13A, heat maps for beating velocity, after drug treatment",reduced
same,beating velocity after washing,"FIG. 13A, after washing and culturing for 1 hour",again increased
same,conduction displacement after treatment,"comparison of three treatment amount groups (100 nM, 1 μM, 10 μM), FIG. 13B/13C",highest in a 1 μM group
same,conduction displacement after washing,"comparison of three treatment amount groups, FIG. 13B/13C",highest in the 1 μM group
same,beat rate variation after washing,"comparison of three treatment amount groups, FIG. 13C",highest in the 10 μM group
same,"drug toxicity of the heart, comparison",inferred from beat rate variation at low treatment amount,higher than that of nifedipine
same,treatment amount at which side effects in the heart in vivo may be caused,inferred from beat rate variation of the cardiac organoid,≥ 100 nM
